Measurements: patent US12459951B2, “Compounds that interact with RAS superfamily proteins for treatment of cancers, inflammatory diseases, rasopathies, and fibrotic disease” (SHY Therapeutics, LLC, priority 2022, dated 2025)
Read-outs that look alike come from different tables or passages of the source.

Experiments:
[1] = test system: Akt phosphorylation; experiment: Akt Phosphorylation Assay (western blot), Panc-1; type: cell-based, human; settings: at 10 μM, * = activation
In short: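 Panc-1 (KRas G12D) cells were treated with compound at 10 μM final (0.3% DMSO) for 6 h at 37 °C, or with serial dilutions for IC50. Cells were either serum-starved overnight in 0.5% FBS and then stimulated with 1.5 ng/ml EGF for 15 min, or kept in 10% FBS without stimulation. Akt Ser473 phosphorylation in lysates was read by western blot.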

[2] = test system: MiaPaca-2 (expressing KRAS G12C mutant); experiment: Proliferation Assay (Cell Viability Assay); type: cell-based; settings: Homo sapiens, MIA PaCa-2
In short: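 MiaPaca-2 cells (KRAS G12C) were grown in DMEM-high glucose with 10% FBS, seeded at 2000–5000 cells/well and cultured overnight. Compounds were added at 10 μM final, or as serial dilutions for IC50, in 0.3% DMSO/10% FBS for 2–4 days at 37 °C, 5% CO2. Viability was measured with CellTiter 96 Aqueous One and % inhibition calculated.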

[3] = read-out: Proliferation in MiaPaca-2: IC50
[4] = Proliferation assay, MiaPaca-2, read-out: MiaPaca-2 IC50 (nM) Pancreatic

| SMILES | % inh of Akt phosphorylation in Panc-1 [1] | IC50 [2, 3] | IC50 ([2]; MiaPaca2, pancreatic, KRas G12C, read-out: Proliferation assay IC50) | IC50 [2, 4] |
| --- | --- | --- | --- | --- |
| Cc1c(-c2ccn(C3CC3)n2)cn2nc(-c3nccn3C)nc(Nc3cc(OCCCO)ccn3)c12 [Compound 149, 3-((2-((6-(1-Cyclopropyl-1H-pyrazol-3-yl)-5-methyl-2-(1-methyl-1H-imidazol-2-yl)pyrrolo[2,1-f][1,2,4]triazin-4-yl)amino)pyridin-4-yl)oxy)propan-1-ol] | D* (85-100% activation) | 510 to 1000 nM | – | – |
| Cc1c(-c2ccn(C)n2)cn2nc(-c3nccn3C)nc(Cl)c12 [Compound 99, 4-Chloro-5-methyl-2-(1-methyl-1H-imidazol-2-yl)-6-(1-methyl-1H-pyrazol-3-yl)pyrrolo[2,1-f][1,2,4]triazine] | A* (1-25% activation) | > 1000 nM | – | – |
| Cc1c(-c2ccn(C)n2)cn2nc(-c3nccn3C)nc(Nc3ncccn3)c12.Cl [Compound 115, 5-Methyl-2-(1-methyl-1H-imidazol-2-yl)-6-(1-methyl-1H-pyrazol-3-yl)-N-(pyrimidin-2-yl)pyrrolo[2,1-f][1,2,4]triazin-4-amine hydrochloride salt] | D* (85-100% activation) | < 150 nM | – | – |
| Cc1c(-c2ccn(C(C)C)n2)cn2nc(-c3nccn3C)nc(Nc3ncc[nH]3)c12 [Compound 125, N-(1H-Imidazol-2-yl)-6-(1-isopropyl-1H-pyrazol-3-yl)-5-methyl-2-(1-methyl-1H-imidazol-2-yl)pyrrolo[2,1-f][1,2,4]triazin-4-amine] | D* (85-100% activation) | 150 to 500 nM | – | – |
| COc1cc(-c2cn3nc(-c4nccn4C)nc(N[C@@H]4CC[C@@H](OC)C4)c3c2C)ccn1 (racemic) [Compound 163, rac N-((1R,3R)-3-Methoxycyclopentyl)-6-(2-methoxypyridin-4-yl)-5-methyl-2-(1-methyl-1H-imidazol-2-yl)pyrrolo[2,1-f][1,2,4]triazin-4-amine] | A* (1-25% activation) | > 1000 nM | – | – |
| COc1cc(Nc2nc(-c3nccn3C)nn3cc(-c4cccnc4)c(-c4ccccn4)c23)ncn1 [Compound 167, N-(6-Methoxypyrimidin-4-yl)-2-(1-methyl-1H-imidazol-2-yl)-5-(pyridin-2-yl)-6-(pyridin-3-yl)pyrrolo[2,1-f][1,2,4]triazin-4-amine] | B* (26-49% activation) | > 1000 nM | – | – |
| COc1cnc(Nc2nc(-c3nccn3C)nn3cc(-c4ccn(C)n4)c(C)c23)cn1 [Compound 110, N-(5-Methoxypyrazin-2-yl)-5-methyl-2-(1-methyl-1H-imidazol-2-yl)-6-(1-methyl-1H-pyrazol-3-yl)pyrrolo[2,1-f][1,2,4]triazin-4-amine] | C* (46-84% activation) | < 150 nM | – | – |
| COc1cc(Nc2nc(-c3nccn3C)nn3cc(-c4ccn(C(C)C)n4)c(C)c23)ncn1 [Compound 6, 6-(1-Isopropyl-1H-pyrazol-3-yl)-N-(6-methoxypyrimidin-4-yl)-5-methyl-2-(1-methyl-1H-imidazol-2-yl)pyrrolo[2,1-f][1,2,4]triazin-4-amine] | 0 (0% inhibition) | 150 to 500 nM | < 150 nM | 10 to 50 nM |
| COc1ccnc(Nc2nc(-c3nccn3C)nn3cc(-c4ccn(C5CC5)n4)c(C)c23)c1 [Compound 137, 6-(1-Cyclopropyl-1H-pyrazol-3-yl)-N-(4-methoxypyridin-2-yl)-5-methyl-2-(1-methyl-1H-imidazol-2-yl)pyrrolo[2,1-f][1,2,4]triazin-4-amine] | D* (85-100% activation) | < 150 nM | – | – |
| CO[C@H]1CC[C@@H](Nc2nc(-c3nccn3C)nn3cc(-c4cccnc4)c(C)c23)C1 (racemic) [Compound 155, rac N-((1R,3S)-3-methoxy-cyclopentyl)-5-methyl-2-(1-methyl-1H-imidazol-2-yl)-6-(pyridin-3-yl)pyrrolo[2,1-f][1,2,4]triazin-4-amine] | A (1-25% inhibition) | > 1000 nM | – | – |
| Cc1c(-c2ccn(C)n2)cn2nc(-c3nccn3C)nc(Nc3cc(OCC(F)(F)F)ccn3)c12 [Compound 129, 5-Methyl-2-(1-methyl-1H-imidazol-2-yl)-6-(1-methyl-1H-pyrazol-3-yl)-N-(4-(2,2,2-trifluoroethoxy)pyridin-2-yl)pyrrolo[2,1-f][1,2,4]triazin-4-amine] | C* (46-84% activation) | < 150 nM | – | – |
| Cc1c(-c2ccn(C)n2)cn2nc(-c3nccn3C)nc(Nc3ccn(C4CC4)n3)c12 [Compound 111, N-(1-Cyclopropyl-1H-pyrazol-3-yl)-5-methyl-2-(1-methyl-1H-imidazol-2-yl)-6-(1-methyl-1H-pyrazol-3-yl)pyrrolo[2,1-f][1,2,4]triazin-4-amine] | D* (85-100% activation) | 150 to 500 nM | – | – |
| Cc1c(-c2ccn(C)n2)cn2nc(-c3nccn3C)nc(Nc3ccncn3)c12.Cl [Compound 116, 5-Methyl-2-(1-methyl-1H-imidazol-2-yl)-6-(1-methyl-1H-pyrazol-3-yl)-N-(pyrimidin-4-yl)pyrrolo[2,1-f][1,2,4]triazin-4-amine hydrochloride salt] | D* (85-100% activation) | < 150 nM | – | – |
| Cc1c(-c2ccn(C3CC3)n2)cn2nc(-c3nccn3C)nc(Nc3cc(OC4CC4)ccn3)c12 [Compound 142, N-(4-Cyclopropoxypyridin-2-yl)-6-(1-cyclopropyl-1H-pyrazol-3-yl)-5-methyl-2-(1-methyl-1H-imidazol-2-yl)pyrrolo[2,1-f][1,2,4]triazin-4-amine] | A (1-25% inhibition) | < 150 nM | – | – |
| Cc1c(-c2ccn(C)n2)cn2nc(-c3nccn3C)nc(Nc3cn(C(C)C)nn3)c12 [Compound 109, N-(1-Isopropyl-1H-1,2,3-triazol-4-yl)-5-methyl-2-(1-methyl-1H-imidazol-2-yl)-6-(1-methyl-1H-pyrazol-3-yl)pyrrolo[2,1-f][1,2,4]triazin-4-amine] | D* (85-100% activation) | 510 to 1000 nM | – | – |
| COc1ccnc(Nc2nc(-c3nccn3C)nn3cc(-c4ccn(C)n4)c(C)c23)c1 [Compound 102, N-(4-Methoxypyridin-2-yl)-5-methyl-2-(1-methyl-1H-imidazol-2-yl)-6-(1-methyl-1H-pyrazol-3-yl)pyrrolo[2,1-f][1,2,4]triazin-4-amine] | D* (85-100% activation) | < 150 nM | – | 1 to 10 nM |
| CO[C@@H]1CC[C@@H](Nc2nc(-c3nccn3C)nn3cc(-c4ccn(C)n4)c(C)c23)C1 (racemic) [Compound 132, rac N-((1R,3R)-3-Methoxycyclopentyl)-5-methyl-2-(1-methyl-1H-imidazol-2-yl)-6-(1-methyl-1H-pyrazol-3-yl)pyrrolo[2,1-f][1,2,4]triazin-4-amine] | A (1-25% inhibition) | > 1000 nM | – | – |
| COCCO[C@H]1C[C@H](Nc2nc(-c3nccn3C)nn3cc(-c4cccnc4)c(C)c23)C1 [Compound 152, N-((1r,3r)-3-(2-methoxyethoxy)cyclo-butyl)-5-methyl-2-(1-methyl-1H-imidazol-2-yl)-6-(pyridin-3-yl)pyrrolo[2,1-f][1,2,4]triazin-4-amine] | B* (26-49% activation) | > 1000 nM | – | – |
| CO[C@H]1C[C@H](Nc2nc(-c3nccn3C)nn3cc(-c4cccnc4)c(C)c23)C1 [Compound 151, N-((1r,3r)-3-Methoxycyclobutyl)-5-methyl-2-(1-methyl-1H-imidazol-2-yl)-6-(pyridin-3-yl)pyrrolo[2,1-f][1,2,4]triazin-4-amine] | C* (46-84% activation) | > 1000 nM | – | – |
| CO[C@H]1CC[C@@H](Nc2nc(-c3nccn3C)nn3cc(-c4ccn(C)n4)c(C)c23)C1 (racemic) [Compound 133, rac N-((1R,3S)-3-Methoxycyclopentyl)-5-methyl-2-(1-methyl-1H-imidazol-2-yl)-6-(1-methyl-1H-pyrazol-3-yl)pyrrolo[2,1-f][1,2,4]triazin-4-amine] | B (26-49% inhibition) | > 1000 nM | – | – |
| Cc1c(-c2ccn(C3CC3)n2)cn2nc(-c3nccn3C)nc(Nc3cc(OC(F)(F)F)ccn3)c12 [Compound 138, 6-(1-Cyclopropyl-1H-pyrazol-3-yl)-5-methyl-2-(1-methyl-1H-imidazol-2-yl)-N-(4-(trifluoromethoxy)pyridin-2-yl)pyrrolo[2,1-f][1,2,4]triazin-4-amine] | D* (85-100% activation) | < 150 nM | – | – |
| COc1cccnc1Nc1nc(-c2nccn2C)nn2cc(-c3ccn(C)n3)c(C)c12 [Compound 112, N-(3-Methoxypyridin-2-yl)-5-methyl-2-(1-methyl-1H-imidazol-2-yl)-6-(1-methyl-1H-pyrazol-3-yl)pyrrolo[2,1-f][1,2,4]triazin-4-amine] | D* (85-100% activation) | < 150 nM | – | – |
| Cc1c(-c2ccn(C3CC3)n2)cn2nc(-c3nccn3C)nc(Nc3cc(O)ccn3)c12 [Compound 150, 2-((6-(1-Cyclopropyl-1H-pyrazol-3-yl)-5-methyl-2-(1-methyl-1H-imidazol-2-yl)pyrrolo[2,1-f][1,2,4]triazin-4-yl)amino)pyridin-4-ol] | B* (26-49% activation) | > 1000 nM | – | – |
